Measured values as given in US20260183322A1, “BORON-BASED ENOLASE LIGANDS AND METHODS OF USE FOR TREATMENT OF CANCER” (LOMA LINDA UNIVERSITY, priority 2022, published 2026).

Columns and labels:
Format in all cases: cell-based
[1] = tested on: parental and DR cell lines (PC3 and DU145); test: Cytotoxic activity in parental and DR prostate cancer cell lines; conditions: for cytotoxic activity (anti-cancer effects): general statement; for cytotoxicity compared with the other compounds of the ten: in vitro cytotoxicity and anti-proliferative data in docetaxel resistant PCa cell lines; for cell viability: parental and DR cell lines (PC3 and DU145)
Text: Out of the initial ten compounds, two target-to-hit specific ligands were identified, BT-768 and BT-772, from the diazaborine-based pharmacophore group and 2-Chloro substituted acetamide derivatives. BT-768 and BT-772 were selected for further studies based on their in vitro cytotoxicity and anti-proliferative data in docetaxel resistant PCa cell lines (see FIG. 3A and FIG. 3B, and FIG. 4A and FIG. 4B). […] The boron-based ligands BT-768 and BT-772 cytotoxic activity in parental and DR cell lines (PC3 and DU145) were then measured.
(§1) FIG. 3A and FIG. 3B, for example, are graphical representations of 3-(4,5-dimethylthiazol-2-yl)-2,5-diphenyl-2H-tetrazolium bromide MTT assay-based dose response curve for the ligand BT-772. FIG. 3A and FIG. 3B represent the average of three independent experiments in triplicates normalized to untreated control assays. As shown in FIG. 3A and FIG. 3B, cell viability was measured by MTT assay. In FIG. 3A, PC3 and PC3-DR cells were treated with increasing concentrations of BT-772 for twenty-four hours.
(§2) In FIG. 3B, DU145 and DU145-DR cells were treated with increasing concentrations of BT-772 for twenty-four hours.

[2] = tested on: PC3 prostate cancer cell line; test: MTT assay cell viability, PC3; conditions: Homo sapiens, PC-3, PC3 cells, twenty-four hours, read-out: IC50 (drug concentration causing 50% inhibition), cytotoxic activity
Text: (§3) FIG. 3A is a graphical representation of 3-(4,5-dimethylthiazol-2-yl)-2,5-diphenyl-2H-tetrazolium bromide (MTT) assay-based dose response curve for the ligand BT-772 in the PC3 prostate cancer cell line and its taxane resistant variant PC3-DR, in accordance with an embodiment of the disclosure.
as §1

[3] = tested on: PC3-DR (taxane resistant variant of PC3); test: MTT assay cell viability, PC3-DR; conditions: PC3-DR cells, twenty-four hours, read-out: IC50 (drug concentration causing 50% inhibition), cytotoxic activity
Text: as §3, §1

[4] = tested on: DU145 prostate cancer cell line; test: MTT assay cell viability, DU145; conditions: Homo sapiens, DU-145, DU145 cells, twenty-four hours, read-out: IC50, cytotoxic activity
Text: (§4) FIG. 3B is a graphical representation of 3-(4,5-dimethylthiazol-2-yl)-2,5-diphenyl-2H-tetrazolium bromide MTT assay-based dose response curve for the ligand BT-772 in the DU145 prostate cancer cell line and its taxane resistant variant DU145-DR, in accordance with an embodiment of the disclosure.
as §1, §2

[5] = tested on: DU145-DR (taxane resistant variant of DU145); test: MTT assay cell viability, DU145-DR; conditions: Homo sapiens, DU-145, DU145-DR cells, twenty-four hours, read-out: IC50, cytotoxic activity
Text: as §4, §1, §2

PC3-DR cells = test: Clonogenic assay, PC3-DR; conditions: 6-well plates, 10 days
Method: FIG. 4A is a photographic image of a clonogenic assay-based dose response for the ligand BT-772 in the PC3 and PC3-DR cell lines, in accordance with an embodiment of the disclosure.
(§5) FIG. 4A and FIG. 4B, for example, show images of clonogenic assays, used primarily to determine cancer cell colony formation capacity and proliferation. In FIG. 4A, PC3 and PC3-DR cells were grown at low density in 6-well plates and allowed to form clones for 10 days.

DU145 cells = test: Clonogenic assay, DU145; conditions: DU145 cells growing as colonies
Method: (§6) FIG. 4B is a photographic image of a clonogenic assay-based dose response for the ligand BT-772 in the DU145 and DU145-DR cell lines, in accordance with an embodiment of the disclosure.
as §5
(§7) In FIG. 4B, DU145 and DU145-DR cells growing as colonies were treated with low micromolar concentrations of BT-772 and clonogenicity was noticeable inhibited at concentrations above 3 μM in DU145 cells and at concentrations above 1 μM in DU145-DR cells.

DU145-DR cells = test: Clonogenic assay, DU145-DR; conditions: DU145-DR cells growing as colonies
Method: as §6, §5, §7

SMILES | cytotoxic activity (anti-cancer effects) [1] | cytotoxicity compared with the other compounds of the ten [1] | cell viability [1] | IC50 [2] [µM] | IC50 [3] [µM] | IC50 [4] [µM] | IC50 [5] [µM] | concentration above which clonogenicity was noticeably inhibited (PC3-DR cells) | concentration above which clonogenicity was noticeably inhibited (DU145 cells) | concentration above which clonogenicity was noticeably inhibited (DU145-DR cells)
N#Cc1ccc(B2Nc3ccccc3-c3nc4ccccc4n32)s1 [BT-768, 5-(benzo[e]benzo[4,5]imidazo[1,-c][1,3,2]diazaborinin-6 (5H)-yl)thiopene-2-carbonitrile] | low μM cytotoxic activity | higher cytotoxic than the other eight compounds | dose-dependent reduction in cell viability |  |  |  |  |  |  | 
Cc1ccc(CN(C(=O)CCl)c2cccc(B3OC(C)(C)C(C)(C)O3)c2)cc1 [BT-772, 2-chloro-N-(4-methylbenzyl)-N-(3-(4,4,5,5-tetramethyl-1,3,2-dioxaborolan-2-yl)phenyl) acetamide] | low μM cytotoxic activity | higher cytotoxic than the other eight compounds | dose-dependent reduction in cell viability | 5 to 10 | 5 to 10 | 5 to 10 | 5 to 10 | above 3 M | above 3 μM | above 1 μM
